# Measurements: patent US7989518B2, “Synthetic biocompatible material having an improved oxidation resistance, process for preparing the same and prosthetic articles obtained therefrom” (priority 2006, dated 2011)
# Tests used:
# [1] = cited from earlier work
# [2] = Oxidation stability after gamma irradiation and aging, by FTIR oxidation index; format: physicochemical; conditions: 0.5 weight % in UHMWPE
# Experimental: UHMWPE GUR 1050 (Ticona Inc, Bayport, Tex., USA) in powder form was mixed with 0.5 weight % of Lipoic Acid in powder form (Talamonti, Italy, stock n. 1050919074). The mixture was then moulded in a cell at 160° C. and at a pressure of 200 MPa.
# A comparative sample was made with the same UHMWPE GUR 1050 only, namely without mixing it with lipoic acid.
# Each sample of UHMWPE, virgin and doped with lipoic acid, was gamma irradiated to a dose of 30 kGy (Isomedix, Northborough, Mass.), then was processed into cylindrical pins of 20 mm length and 9 mm diameter.
# Each sample, virgin and doped, was then aged at 80° C. in a convection oven for 5 weeks, in air (ASTM standard F2003-02). After aging and oxidation, thin sections of […] thickness of each sample were prepared using a Leitz Wetzlar Sledge Microtome (Leica, Nussloch, Germany). The irradiated and aged sections of cylindrical pins samples were then analysed by means of Fourier Transform Infrared Spectroscopy (FTIR). The IR analysis was performed using a Nicolet Magna 860 spectrometer.
# The effect of aging on the oxidation of virgin UHMWPE and UHMWPE doped with lipoic acid is shown in FIG. 2 and FIG. 3, respectively. An oxidation index OI was defined as the ratio of the area under 1740 cm^−1 carbonyl and 1370 cm^−1 methylene absorbance peaks.
# [3] = Thermal stability of Lipoic Acid inside UHMWPE, by FTIR spectra; format: physicochemical; conditions: UHMWPE with 0.5% wt lipoic acid heated at 150° C. for 2 hours or 200° C. for 24 hours
# Experimental: UHMWPE GUR 1050 (Ticona Inc, Bayport, Tex., USA) in powder form was mixed with 0.5 weight % of Lipoic Acid in powder form (Talamonti, Italy, stock n. 1050919074). The mixture was then moulded in a cell at 160° C. and at a pressure of 200 MPa. The purpose of these examples was to investigate the presence and stability of Lipoic Acid inside UHMWPE with which it was pre-mixed. UHMWPE commonly melts at 138° C., but Lipoic Acid melts at about 65° C. Therefore, to check the Lipoic Acid stability into the UHMWPE at high temperatures a Lipoic Acid-doped UHMWPE was tested at 150° C. and 200° C. […] Line B represents the spectrum of UHMWPE doped with LA, heated at 150° C. for 2 hours, then cooled at room temperature, in which the spectrum of pure UHMWPE was detracted as baseline.
structure (smiles),measurement,setting,value
"O=C(O)CCCCC1CCSS1 (centres unmarked) [Lipoic Acid, Lipoic acid]",toxicity on human beings,[1]; 100 to 600 mg/day for 3 to 6 months,low toxicity
same,side effects,[1]; dose of 50 mg/day,no side effect reported
same,antioxidant effectiveness in UHMWPE,[2],effective as antioxidant
same,stability of Lipoic Acid (FTIR spectrum),[3],substantially unchanged
same,stability of Lipoic Acid (FTIR spectrum),[3]; listed as lipoic acid,stable
